Test results from patent publication US20230002736A1, “ENDODERM DIFFERENTIATION FROM PLURIPOTENT STEM CELL LINES” (priority 2019, published 2023).

What was measured:
[1] = test system: iPSC-derived hepatocytes; assay: RNA Sequencing of iPSCs fully differentiated to hepatocytes; format: cell-based, human; details: 5 paired iPSCs, doxycycline during endoderm phase
Procedure: Differentiation of Definitive Endoderm to hepatocytes (days 8-23). iPSC-derived human endoderm prepared as described herein was cultured continuously on Matrigel or split 1:2 onto Matrigel plates for hepatic differentiation. Definitive endoderm (DE) was cultured in Iscove's modified Dulbecco's medium (Gibco catalog #supplemented with Gem21 NeuroPlex without insulin (Gemini Bio-Products catalog #400-962), Glutagro, non-essential amino acids (1×, Gibco catalog #11-140-050), 0.3 mM monothioglycerol, 5 μg/mL human insulin (Sigma), and 100 nM dexamethasone. To induce hepatoblasts, cells were treated with FGF2 (10 ng/mL) and BMP4 (20 ng/mL) for 5 days. During this phase, cells can be passaged using accutase and split at least 2 to 4× to increase yield and quality of final product again onto Matrigel with the addition of 10 μM Y-27632 and 2 μM doxycycline to increase cell survival during accutase treatment and splitting. This phase and the next were grown at low oxygen (4-6%) and 5% CO2. […]
RNA isolation, Real-Time PCR analysis, and RNA Sequencing. […] Quantitative Real-Time PCR was performed using FastStart Universal SYBR Green, Roche Diagnostics (Indianapolis, IN). […] On average, 27,642,407 raw reads were obtained and mapped. Raw reads were subjected to quality control. Clean reads were analyzed by Gene Ontology analysis, KEGG pathway enrichment, and cluster analysis. […]

[2] = test system: Cleaved Caspase 3 (CC3); assay: Cleaved caspase 3 immunofluorescence during endoderm induction; format: cell-based, human; details: 48 hours of induction, 4 different cell-line experiments
Procedure: Immunohistochemistry and Cell staining. iPSCs, endodermal cells and iHeps were fixed using 4% paraformaldehyde for 15 minutes, permeabilized using 0.1% Triton X-100 for 10 minutes followed by 3× PBS (phosphate buffered saline, Corning Life Sciences) rinses and blocking with 1.5% bovine serum albumin for 1 hour. Samples were incubated with primary antibody overnight. […]
As a first step to understand the mechanism by which doxycycline was affecting induction of iPSCs into endoderm, we explored whether doxycycline was affecting proliferation versus cellular death. […] After quantification, we noted both significant Ki-67 staining and cleaved caspase 3 (CC3) staining, as expected (FIG. 3A). […]

For `C[C@H]1c2cccc(O)c2C(=O)C2=C(O)[C@]3(O)C(=O)C(C(N)=O)=C(O)[C@@H](N(C)C)[C@@H]3[C@@H](O)[C@@H]21` [doxycycline], the “effect on final iPSC-derived hepatocytes (principal component analysis)” value [1] was “did not alter the final product” and the “decrease in CC3 staining” value [2] was “greater than 50%”.
